From patent publication US20220220100A1 (SOLUTIA CANADA INC., priority 2019, published 2022)

How the values were obtained:
[1] = Photostationary state (PSS) and lambda max under simulated sunlight (solar simulator); format: physicochemical; settings: for λmax (nm): peak in the visible range, ring-closed (dark) state; for PSS (SS): simulated sunlight (solar simulator)
Text: The term “photostationary state” (PSS) refers to an equilibrium state of a compound or material where the rate of the ring closing (forward) reaction is equal to the rate of the ring-opening reaction, when irradiated with light in a given region of the spectrum. In other words, the ratio of the ring-open isomer to the ring-closed isomer is at an equilibrium. PSS may be expressed with reference to a light source, or with reference to a type of light, for example, QUV, Xenon-arc lamp, Q-SUN, natural or filtered sunlight, UV, VIS, IR, NIR, full spectrum or the like, or with reference to a particular wavelength or range of wavelengths, or in the presence or absence of a filter. Some ring-open and ring-closed isomers may undergo isomerization from one to the other in response to different wavelengths of light. If a wavelength of light is used where only one of the isomers absorbs, irradiation results in complete isomerization to the other form. 254 nm, 313 nm or 365 nm light are commonly used in studies of UV-absorbing isomers, but this may not be representative of the PSS under other light conditions that include the visible spectrum such as natural or simulated sunlight (“full spectrum” light) and/or with filters that block a portion of the UV component of the light. For example, in a ring-closed (dark) state, the magnitude of the maximum absorbance in the visible range may change with the light source (FIG. 1). The wavelength at this peak in the visible range may be referred to as lambda max, or λmax. […] When full spectrum light from a solar simulator (Xenon arc lamp) is used as a light source (line B), a balance is achieved between the ring-closed (dark) state induced by the UV component, and a ring-open (faded) state induced by the visible component of the light. Inclusion of a UV blocking layer in the light path (line A) may reduce the UV component of the light, and the ring-opening reaction induced by the visible light component becomes more prominent. […] Where desired, the ratio of ring-open and ring-closed isomers at a PSS may be quantified by ^1H NMR spectroscopy, such as described in U.S. Pat. No. 7,777,055. In various embodiments, compounds with an increased absorbance at a photostationary state (PSS), or increased contrast ratio, are an improvement over other diarylethene compounds. A compound with a greater absorbance in the visible range can be used in lesser quantities in a formulation or material to achieve a desired contrast ratio, whereas a compound with a lower absorbance at a PSS may need a higher concentration to achieve a desired contrast ratio.
Photostationary State (PSS)
UV/Vis spectra were obtained using an OceanOptics™ Spectrophotometer. A 2×10^−5 M solution of compound in solvent was prepared, and photofaded using visible light until absorption in the visible region of the spectrum stabilized. The sample was then irradiated with simulated sunlight (QSUN SS-150 Solar Simulator with xenon arc lamp) until the absorption spectrum stabilized. To obtain PSS in the presence of a UV blocking film, a second sample was prepared and irradiated as described, with a UV blocking film inserted in the light path when irradiating.

[2] = Solubility in Rhodiasolv IRIS solvent; format: physicochemical; settings: Rhodiasolv IRIS (dimethyl-2-methyl glutarate); wt %
Text: A compound with greater solubility allows for a formulation or material with a greater concentration of coloured molecule to be incorporated into a composition. This may allow for increasing the contrast ratio for a compound with a lesser absorbance at PSS. Examples of solubilizing groups for the compound include alkoxy, ether, ester or siloxy groups. In various embodiments, compounds may be soluble in the solvent component at room temperature at about 6 wt %, 7 wt %, 8 wt %, 9 wt %, 10 wt % or greater for testing to determine whether a compound has application as an exterior glazing or optical filter. If the solubility of a compound in the solvent component is too low, then insufficient darkening may be achieved in the ring-closed configuration, depending on conditions of use for the compound.
Chromophore solutions in Rhodiasolv IRIS were prepared at 1 to 10 wt % loading. Solutions were prepared in a glovebox by charging the chromophore and Rhodiasolv IRIS to a trace-clean vial, and the solution was stirred on a hotplate at 90° C. for 2-24 hours. After cooling, the chromophore solution was injected into glass weathering cells and the fill and vent ports were sealed with a thin disc of Kalrez (FFKM Perfluorinated Elastomer) and secured with a clamp and set-screw. The weathering cells were filled and sealed inside the glove box.

[3] = absorbance at photostationary state, 2×10^−5 M solution

| SMILES | PSS (Steady State) ([1]; head of Table 3, absorbance at photostationary state, 2×10^−5 M solution) | λmax (nm) [1] [nm] | Solubility in Rhodiasolv IRIS [2] [%] | PSS (SS) [1, 3] |
| --- | --- | --- | --- | --- |
| CCOC(=O)CCCOc1cc2oc(-c3ccc(C(C)(C)C)cc3)c(C3=C(c4cc(-c5sc(C(C)(C)C)cc5C)sc4-c4sc(C(C)(C)C)cc4C)C(F)(F)C(F)(F)C3(F)F)c2cc1OCCCC(=O)OCC [Chromophore S384, diethyl 4,4′-((2-(4-(tert-butyl)phenyl)-3-(2-(5,5″-di-tert-butyl-3,3″-dimethyl-[2,2′:5′,2″-terthiophen]-3′-yl)-3,3,4,4,5,5-hexafluorocyclopent-1-en-1-yl)benzofuran-5,6-diyl)bis(oxy))dibutanoate] | 0.342 | 593 | >10 | – |
| CCOC(=O)CCCOc1cc2oc(-c3ccc(C(C)(C)C)cc3)c(C3=C(c4cc(-c5cc(C(C)(C)C)cs5)sc4-c4cc(C(C)(C)C)cs4)C(F)(F)C(F)(F)C3(F)F)c2cc1OCCCC(=O)OCC [Chromophore S386, diethyl 4,4′-((2-(4-(tert-butyl)phenyl)-3-(2-(4,4″-di-tert-butyl-[2,2′:5′,2″-terthiophen]-3′-yl)-3,3,4,4,5,5-hexafluorocyclopent-1-en-1-yl)benzofuran-5,6-diyl)bis(oxy))dibutanoate] | – | 593 | >10 | 0.351 |
| CCOC(=O)CCCOc1cc2oc(-c3ccc(C(C)(C)C)cc3)c(C3=C(c4cc(-c5cc6c(s5)C(C)(C)CCC6(C)C)sc4-c4cc5c(s4)C(C)(C)CCC5(C)C)C(F)(F)C(F)(F)C3(F)F)c2cc1OCCCC(=O)OCC [Chromophore S387, ethyl 4-[(3-{2-[2,5-bis(4,4,7,7-tetramethyl-4,5,6,7-tetrahydro-1-benzothiophen-2-yl)thiophen-3-yl]-3,3,4,4,5,5-hexafluorocyclopent-1-en-1-yl}-2-(4-tert-butylphenyl)-6-(4-ethoxy-4-oxobutoxy)-1-benzofuran-5-yl)oxy]butanoate] | – | 594 | >10 | 0.409 |
| COCCCOc1cc2oc(-c3ccc(C(C)(C)C)cc3)c(C3=C(c4cc(-c5cc6c(s5)C(C)(C)CCC6(C)C)sc4-c4cc5c(s4)C(C)(C)CCC5(C)C)C(F)(F)C(F)(F)C3(F)F)c2cc1OCCCOC [Chromophore S388, 3-(2-(2,5-bis(4,4,7,7-tetramethyl-4,5,6,7-tetrahydrobenzo[b]thiophen-2-yl)thiophen-3-yl)-3,3,4,4,5,5-hexafluorocyclopent-1-en-1-yl)-2-(4-(tert-butyl)phenyl)-5,6-bis(3-methoxypropoxy)benzofuran] | – | 600 | >10 | 0.38 |
| CC(C)(C)c1ccc(-c2oc3cc(OCCN4CCOC4=O)c(OCCN4CCOC4=O)cc3c2C2=C(c3cc(-c4cc5c(s4)C(C)(C)CCC5(C)C)sc3-c3cc4c(s3)C(C)(C)CCC4(C)C)C(F)(F)C(F)(F)C2(F)F)cc1 [Chromophore S390, 3,3′-(((3-(2-(2,5-bis(4,4,7,7-tetramethyl-4,5,6,7-tetrahydrobenzo[b]thiophen-2-yl)thiophen-3-yl)-3,3,4,4,5,5-hexafluorocyclopent-1-en-1-yl)-2-(4-(tert-butyl)phenyl)benzofuran-5,6-diyl)bis(oxy))bis(ethane-2,1-diyl))bis(oxazolidin-2-one)] | – | 593 | >10 | 0.45 |
| CC(=O)Oc1cc2oc(-c3ccc(C(C)(C)C)cc3)c(C3=C(c4cc(-c5cc(C(C)(C)C)cs5)sc4-c4cc(C(C)(C)C)cs4)C(F)(F)C(F)(F)C3(F)F)c2cc1OC(C)=O [Chromophore S396, 2-(4-(tert-butyl)phenyl)-3-(2-(4,4″-di-tert-butyl-[2,2′:5′,2″-terthiophen]-3′-yl)-3,3,4,4,5,5-hexafluorocyclopent-1-en-1-yl)benzofuran-5,6-diyl diacetate] | – | 578 | >3 | 0.278 |
| COc1ccc2oc(-c3ccc(C(C)(C)C)cc3)c(C3=C(c4cc(-c5cc6c(s5)C(C)(C)CCC6(C)C)sc4-c4cc5c(s4)C(C)(C)CCC5(C)C)C(F)(F)C(F)(F)C3(F)F)c2c1 [Chromophore S400] | – | 592 | >3 | 0.306 |
| COc1cc2oc(-c3ccc(C(C)(C)C)cc3)c(C3=C(c4cc(-c5cc6c(s5)C(C)(C)CCCC6(C)C)sc4-c4cc5c(s4)C(C)(C)CCCC5(C)C)C(F)(F)C(F)(F)C3(F)F)c2cc1OC [Chromophore S405] | – | 598 | >1 | 0.381 |
